Converted amounts (≈) assume the structure as drawn. Where two headings read alike, the source gives them in different places.
Experiments:
[1] = tested on: Bacteroides Strains; experiment: MIC by microdilution in Brucella broth against Bacteroides strains; format: cell-based, Bacteroides spp.
[2] = tested on: CD strains; experiment: In vitro activity of CFM + additional antimicrobial agent against CD (MIC alone/combination, FIC, ΣFIC); format: cell-based, Clostridium difficile; conditions: for MIC: Clostridioides difficile, read-out: MIC alone
[3] = Test 1, CD strain VPI 10463, CFM + VAN
[4] = Test 9, CD strain NR32885, CFM + VAN
[5] = Test 11, CD strain NR32885, CFM + VAN
[6] = Test 12, CD strain NR32885, CFM + MET
[7] = Test 18, CD strain NR32888, CFM + VAN
[8] = Test 19, CD strain NR32888, CFM + MET
[9] = Test 2, CD strain VPI 10463, CFM + VAN
[10] = Test 3, CD strain VPI 10463, CFM + MET
[11] = Test 4, CD strain VPI 10463, CFM + MET
[12] = Test 5, CD strain NR32889, CFM + VAN
[13] = Test 6, CD strain NR32890, CFM + VAN
[14] = Test 7, CD strain NR32885, CFM + VAN
[15] = Test 8, CD strain NR32885, CFM + MET
[16] = Test 10, CD strain NR32885, CFM + MET
[17] = Test 13, CD strain BAA1805 (BI/NAP1/027), CFM + VAN
[18] = Test 14, CD strain BAA1805 (BI/NAP1/027), CFM + MET
[19] = Test 15, CD strain BAA1805 (BI/NAP1/027), CFM + MET
[20] = Test 16, CD strain BAA1805 (BI/NAP1/027), CFM + VAN
[21] = Test 17, CD strain BAA1805 (BI/NAP1/027), CFM + MET

## CC(C)N=c1cc2n(-c3ccc(Cl)cc3)c3ccccc3nc-2cc1Nc1ccc(Cl)cc1 [CFM, 3-(p-chloroanilino)-10-(p-chlorophenyl)-2,10-dihydro-2-iso-propyliminophenazine]
[1]; B. caccae HM728, read-out: MIC
  MIC: 1 µg/mL (≈ 2.11 µM)
[1]; B. eggerthii HM210, read-out: MIC
  MIC: 2 µg/mL (≈ 4.22 µM)
[1]; B. fragilis HM709, read-out: MIC
  MIC: 4 µg/mL (≈ 8.45 µM)
[1]; B. fragilis HM710, read-out: MIC
  MIC: 2 µg/mL (≈ 4.22 µM)
[1]; B. fragilis HM714, read-out: MIC
  MIC: 2 µg/mL (≈ 4.22 µM)
[1]; B. ovatus HM222, read-out: MIC
  MIC: 0.25 µg/mL (≈ 0.528 µM)
[1]; B. stercoris HM1036, read-out: MIC
  MIC: 0.5 µg/mL (≈ 1.06 µM)
[1]; Bacteroides, B. spp. HM18
  MIC: 4 µg/mL (≈ 8.45 µM)
[1]; Bacteroides, B. spp. HM19
  MIC: 1 µg/mL (≈ 2.11 µM)
[1]; Bacteroides, B. spp. HM23, read-out: MIC
  MIC: 2 µg/mL (≈ 4.22 µM)
[1]; Bacteroides, B. spp. HM27
  MIC: 1 µg/mL (≈ 2.11 µM)
[1]; Bacteroides, B. spp. HM58
  MIC: 1 µg/mL (≈ 2.11 µM)
[2]; BAA1805, Test 13, CD strain BAA1805 (BI/NAP1/027), CFM + VAN
  MIC: 0.25 µg/mL
[2]; BAA1805, Test 14, CD strain BAA1805 (BI/NAP1/027), CFM + MET
  MIC: 0.25 µg/mL
[2]; BAA1805, Test 15, CD strain BAA1805 (BI/NAP1/027), CFM + MET
  MIC: 0.25 µg/mL
[2]; BAA1805, Test 16, CD strain BAA1805 (BI/NAP1/027), CFM + VAN
  MIC: 0.25 µg/mL
[2]; BAA1805, Test 17, CD strain BAA1805 (BI/NAP1/027), CFM + MET
  MIC: 0.25 µg/mL
[2]; [3]
  MIC: 0.25 µg/mL
  FIC: 0.124
  MIC combination: 0.031 µg/mL
[2]; [4]
  MIC: 0.25 µg/mL
  FIC: 0.25
  MIC combination: 0.062 µg/mL
[2]; [5]
  MIC: 0.25 µg/mL
  FIC: 0.25
  MIC combination: 0.062 µg/mL
[2]; [6]
  MIC: 0.25 µg/mL
  FIC: 0.031
  MIC combination: 0.0078 µg/mL
[2]; [7]
  MIC: 0.25 µg/mL
  FIC: 0.5
  MIC combination: 0.125 µg/mL
[2]; [8]
  MIC: 0.25 µg/mL
  FIC: 0.062
  MIC combination: 0.015 µg/mL
[2]; Test 20, CD strain NR32888, CFM + VAN
  MIC: 0.25 µg/mL
[2]; Test 21, CD strain NR32888, CFM + MET
  MIC: 0.25 µg/mL
[2]
  MIC: 0.125 µg/mL
[2]; Test 1, CD strain VPI 10463, sum for combination CFM + VAN
  ΣFIC: 0.374
[2]; [9]
  FIC: 0.0312
  MIC combination: 0.0039 µg/mL
[2]; Test 2, CD strain VPI 10463, sum for combination CFM + VAN
  ΣFIC: 0.281
[2]; [10]
  FIC: 0.5
  MIC alone: 0.125 µg/mL
  MIC combination: 0.062 µg/mL
[2]; Test 3, CD strain VPI 10463, sum for combination CFM + MET
  ΣFIC: 1
[2]; [11]
  FIC: 0.5
  MIC alone: 0.125 µg/mL
  MIC combination: 0.062 µg/mL
[2]; Test 4, CD strain VPI 10463, sum for combination CFM + MET
  ΣFIC: 1
[2]; [12]
  FIC: 1
  MIC alone: 0.125 µg/mL
  MIC combination: 0.125 µg/mL
[2]; Test 5, CD strain NR32889, sum for combination CFM + VAN
  ΣFIC: 2
[2]; [13]
  FIC: 0.25
  MIC alone: 0.125 µg/mL
  MIC combination: 0.031 µg/mL
[2]; Test 6, CD strain NR32890, sum for combination CFM + VAN
  ΣFIC: 0.75
[2]; [14]
  FIC: 0.5
  MIC alone: 0.125 µg/mL
  MIC combination: 0.062 µg/mL
[2]; Test 7, CD strain NR32885, sum for combination CFM + VAN
  ΣFIC: 1
[2]; [15]
  FIC: 0.25
  MIC alone: 0.125 µg/mL
  MIC combination: 0.031 µg/mL
[2]; Test 8, CD strain NR32885, sum for combination CFM + MET
  ΣFIC: 0.375
[2]; Test 9, CD strain NR32885, sum for combination CFM + VAN
  ΣFIC: 0.5
[2]; [16]
  FIC: 0.031
  MIC alone: 0.125 µg/mL
  MIC combination: 0.0039 µg/mL
[2]; Test 10, CD strain NR32885, sum for combination CFM + MET
  ΣFIC: 0.281
[2]; Test 11, CD strain NR32885, sum for combination CFM + VAN
  ΣFIC: 0.5
[2]; Test 12, CD strain NR32885, sum for combination CFM + MET
  ΣFIC: 0.281
[2]; [17]
  FIC: 0.25
  MIC combination: 0.062 µg/mL
[2]; Test 13, CD strain BAA1805 (BI/NAP1/027), sum for combination CFM + VAN
  ΣFIC: 0.312
[2]; [18]
  FIC: 0.015
  MIC combination: 0.0039 µg/mL
[2]; Test 14, CD strain BAA1805 (BI/NAP1/027), sum for combination CFM + MET
  ΣFIC: 0.031
[2]; [19]
  FIC: 0.06
  MIC combination: 0.015 µg/mL
[2]; Test 15, CD strain BAA1805 (BI/NAP1/027), sum for combination CFM + MET
  ΣFIC: 0.185
[2]; [20]
  FIC: 0.25
  MIC combination: 0.062 µg/mL
[2]; Test 16, CD strain BAA1805 (BI/NAP1/027), sum for combination CFM + VAN
  ΣFIC: 0.5
[2]; [21]
  FIC: 0.031
  MIC combination: 0.0078 µg/mL
[2]; Test 17, CD strain BAA1805 (BI/NAP1/027), sum for combination CFM + MET
  ΣFIC: 0.156
[2]; Test 18, CD strain NR32888, sum for combination CFM + VAN
  ΣFIC: 1
[2]; Test 19, CD strain NR32888, sum for combination CFM + MET
  ΣFIC: 0.125

Source: patent US9849130B2 (KamTek, Inc., priority 2014, dated 2017)
